How the values were obtained:
[1] = tested on: Rattus norvegicus; test: Percent change in avg. volume of pleural fluid at a dose 4 mg/kg of indomethacin and 5-h response is evaluated by Evans blue-carrageenan induced pleural effusion assay; type: functional
[2] = tested on: Rattus norvegicus; test: Percent change in average volume of pleural fluid at a dose of 4.0 mg/kg and 5-h response by Evans blue-carrageenan induced pleural effusion assay.; type: functional
[3] = tested on: Mus musculus; test: Oral analgesic activity was determined in mice by the acetylcholine-induced abdominal constriction assay upon ip administration of acetylcholine bromide 20 min following oral administration; type: functional; settings: Abdomen
[4] = tested on: Mus musculus; test: Oral analgesic activity was determined in mice by the acetylcholine-induced abdominal constriction assay upon ip administration of acetylcholine bromide 5 hours following oral administration; type: functional; settings: Abdomen
[5] = tested on: Rattus norvegicus; test: Percent change in average volume of pleural fluid at a dose 4 mg/kg of indomethacin and 5-h response is evaluated by Evans blue-carrageenan induced pleural effusion assay; type: functional
[6] = tested on: Rattus norvegicus; test: Percent change in average volume of pleural fluid at a dose of 100 mg/kg and 5-h response by Evans blue-carrageenan induced pleural effusion assay.; type: functional
[7] = tested on: Rattus norvegicus; test: Evaluated for chronic intestinal toxicity (multiple oral dose) in rats; type: organism-based; settings: in vivo
[8] = organism: Rattus norvegicus; test: Evaluated for acute potency in pleural effusion assay; type: functional
[9] = organism: Rattus norvegicus; test: Evaluated for chronic potency in adjuvant arthritis assay; type: functional
[10] = Chronic therapeutic index as ratio of potency in adjuvant-induced arthritis assay to that of potency in intestinal toxicity assay; settings: read-out: Chronic TI
[11] = Acute therapeutic index as ratio of potency in pleural effusion to that of potency in gastric toxicity assay; type: tissue-based; settings: Stomach; read-out: Acute TI
[12] = tested on: Rattus norvegicus; test: Acute gastric toxicity (single oral dose) in male fasted rats; type: organism-based, Stomach; settings: in vivo
[13] = molecular target: T1, Cyclooxygenase (Bos taurus, UniProt O62664+O62698)
T1 sequence (O62664 whole entry): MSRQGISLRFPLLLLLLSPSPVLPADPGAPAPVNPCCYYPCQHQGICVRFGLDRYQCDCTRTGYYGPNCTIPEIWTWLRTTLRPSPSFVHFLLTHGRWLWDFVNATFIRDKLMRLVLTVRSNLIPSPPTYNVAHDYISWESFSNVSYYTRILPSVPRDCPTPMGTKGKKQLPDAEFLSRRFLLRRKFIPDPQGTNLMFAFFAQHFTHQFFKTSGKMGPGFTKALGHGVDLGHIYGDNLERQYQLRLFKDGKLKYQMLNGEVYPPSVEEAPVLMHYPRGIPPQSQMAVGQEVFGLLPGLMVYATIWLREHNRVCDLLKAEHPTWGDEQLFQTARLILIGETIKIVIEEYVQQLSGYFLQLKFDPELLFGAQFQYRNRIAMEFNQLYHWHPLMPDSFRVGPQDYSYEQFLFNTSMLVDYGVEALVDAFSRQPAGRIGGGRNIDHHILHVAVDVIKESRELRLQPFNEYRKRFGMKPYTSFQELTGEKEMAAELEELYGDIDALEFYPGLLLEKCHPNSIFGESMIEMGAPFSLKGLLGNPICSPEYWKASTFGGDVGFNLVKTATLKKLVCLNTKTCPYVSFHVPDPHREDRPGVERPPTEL
T1 sequence (O62698 whole entry): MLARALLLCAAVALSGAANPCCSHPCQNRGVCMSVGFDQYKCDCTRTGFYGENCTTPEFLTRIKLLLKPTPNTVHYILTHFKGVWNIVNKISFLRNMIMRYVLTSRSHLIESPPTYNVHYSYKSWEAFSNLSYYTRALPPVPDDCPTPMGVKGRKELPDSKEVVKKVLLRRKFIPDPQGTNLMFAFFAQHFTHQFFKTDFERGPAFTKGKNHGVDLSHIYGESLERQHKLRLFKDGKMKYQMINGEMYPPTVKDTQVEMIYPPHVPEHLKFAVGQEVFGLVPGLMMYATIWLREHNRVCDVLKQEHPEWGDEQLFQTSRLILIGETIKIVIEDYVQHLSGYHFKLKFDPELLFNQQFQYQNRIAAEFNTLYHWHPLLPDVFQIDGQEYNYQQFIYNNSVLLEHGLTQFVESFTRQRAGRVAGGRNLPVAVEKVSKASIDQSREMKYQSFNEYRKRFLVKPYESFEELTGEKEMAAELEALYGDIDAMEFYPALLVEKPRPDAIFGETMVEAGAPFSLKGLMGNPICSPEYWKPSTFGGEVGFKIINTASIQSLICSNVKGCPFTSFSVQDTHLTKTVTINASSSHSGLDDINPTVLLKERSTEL
Description: Inhibition of prostaglandin G/H synthase obtained from bovine seminal vesicles.

[14] = tested on: Rattus norvegicus; test: Percent change in avg. volume of pleural fluid at a dose of 0.16 mg/kg and 5-h response is evaluated by Evans blue-carrageenan induced pleural effusion assay
[15] = tested on: Rattus norvegicus; test: Percent change in avg. volume of pleural fluid at a dose of 4.0 mg/kg and 5-h response is evaluated by Evans blue-carrageenan induced pleural effusion assay; type: functional

Structure (SMILES)	Change [1] [%]	Change [2] [%]	ED50 [3] [mg/kg]	ED50 [4] [mg/kg]	Change [5] [%]	Change [6] [%]	Intestinal toxicity [7]	Potency [8]	Potency [9]	selectivity ratio [10]	selectivity ratio [11]	Gastric toxicity [12]	IC50 [13] [nM]	Change [14] [%]	Change [15] [%]
Nc1ccc(CC(=O)O)cc1C(=O)c1ccccc1	-31	-4													
Nc1c(CC(=O)[O-])cccc1C(=O)c1ccc(I)cc1.[Na+]		-31	0.13	0.18	-32	-44	3.3	6.9	8.1	2.5	1.3	5.3	70	-17	
Nc1cc(C(=O)c2ccccc2)ccc1CC(=O)[O-].[Na+]						-2									-31
Nc1ccc(C(=O)c2ccccc2)cc1CC(=O)O					-43										11
Nc1cccc(C(=O)c2ccccc2)c1CC(=O)[O-].[Na+]	-35	-2													
Nc1c(CC(=O)[O-])cccc1C(=O)c1ccc(Cl)cc1.[Na+]		-29	0.1	0.93	-33	-38	1.4	3.8	2.2	1.6	4.3	0.9	300	-16	
COc1cc(CC(=O)[O-])c(N)c(C(=O)c2ccccc2)c1.[Na+]	-48	-18											5400		
Nc1c(CC(=O)[O-])cccc1C(=O)c1ccc(Br)cc1.Nc1c(CC(=O)[O-])cccc1C(=O)c1ccc(Br)cc1.O.O.O.[Na+].[Na+] [BROMFENAC SODIUM]		-43	0.07	0.13	-41		1.8	7.5	5.8	3.2	5.4	1.4	80	-27	
